Values of other authors as cited in patent publication US20240325431A1, “COMPOSITION FOR PURIFICATION OF BIOFLUIDS” (BEACON MEDCARE (HK) LIMITED, priority 2018, published 2024).

System: plasma protein

Row | Structure (SMILES) | binding rate to plasma protein
1 | C[C@H]1O[C@@H](O[C@H]2[C@@H](O)C[C@H](O[C@H]3[C@@H](O)C[C@H](O[C@H]4CC[C@@]5(C)[C@H](CC[C@@H]6[C@@H]5CC[C@]5(C)[C@@H](C7=CC(=O)OC7)CC[C@]65O)C4)O[C@@H]3C)O[C@@H]2C)C[C@H](O)[C@@H]1O [digitoxin] | 91%
2 | CN1C(C(=O)Nc2ccccn2)=C(O)c2sccc2S1(=O)=O [tenoxicam] | 99%
